# Patent EP3064205A1, “Therapeutic use of isomeric forms of 2-(4-chlorophenyl)quinolin-4-yl)(piperidin-2-yl)methanol” (Glionova AB, priority 2015, dated 2016)
# Like-named read-outs stand apart in the source and are kept apart here.
# How the values were obtained:
# Experiment in all cases: 3D clonogenic assay (PDX)
# Assay type in all cases: cell-based, human
# GXF 251 = settings: GXF 251, Gastric; for IC50: Homo sapiens
# Summary of the method: (§1)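 Ex vivo clonogenic growth of patient-derived xenograft cells in a three-layer soft-agar system, IMDM with 20% FCS. Continuous exposure at ten half-log concentrations from 50 µM, in duplicate. Colonies were counted at maximal formation after 8–13 days.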
# HNXF 1853 = settings: HNXF 1853, Head and Neck; for IC50: Homo sapiens
# Summary of the method: as §1
# LXFA 1041 = settings: LXFA 1041, Lung Adeno; for IC50: Homo sapiens
# Summary of the method: as §1
# MEXF 274 = settings: MEXF 274, Melanoma; for IC50: Homo sapiens
# Summary of the method: as §1
# BXF 1036 = settings: BXF 1036, Bladder; for IC50: Homo sapiens
# Summary of the method: as §1
# RXF 631 = settings: RXF 631, Renal; for IC50: Homo sapiens
# Summary of the method: as §1
# PAXF 1900 = settings: PAXF 1900, Pancreas; for IC50: Homo sapiens
# Summary of the method: as §1
# PXF 1752 = settings: PXF 1752, Pleuramesothelioma; for IC50: Homo sapiens
# Summary of the method: as §1
# CXF 280 = settings: CXF 280, Colorectal; for IC50: Homo sapiens
# Summary of the method: as §1
# RXF 1220 = settings: RXF 1220, Renal; for IC50: Homo sapiens
# Summary of the method: as §1
# PXF 537 = settings: PXF 537, Pleuramesothelioma; for IC50: Homo sapiens
# Summary of the method: as §1
# PAXF 2033 = settings: PAXF 2033, Pancreas; for IC50: Homo sapiens
# Summary of the method: as §1
smiles,measurement,setting,value
"O[C@H](c1cc(-c2ccc(Cl)cc2)nc2ccccc12)[C@@H]1CCCCN1 [S1, (R)-(2-(4-chlorophenyl)quinolin-4-yl)((S)-piperidin-2-yl)methanol]",b (bottom plateau of concentration-effect curve),GXF 251,34
same,t (top plateau of concentration-effect curve),GXF 251,111
same,IC50,GXF 251; read-out: abs. IC50,6.02 µM
same,IC50,GXF 251; read-out: rel. IC50,5.26 µM
same,b (bottom plateau of concentration-effect curve),HNXF 1853,50
same,t (top plateau of concentration-effect curve),HNXF 1853,106
same,IC50,HNXF 1853; read-out: abs. IC50,50 µM
same,IC50,HNXF 1853; read-out: rel. IC50,8.77 µM
same,IC50,LXFA 1041; read-out: abs. IC50,5.3 µM
same,IC50,LXFA 1041; read-out: rel. IC50,5.25 µM
same,b (bottom plateau of concentration-effect curve),LXFA 1041,10
same,t (top plateau of concentration-effect curve),LXFA 1041,95
same,IC50,MEXF 274; read-out: abs. IC50,8.84 µM
same,IC50,MEXF 274; read-out: rel. IC50,8.69 µM
same,b (bottom plateau of concentration-effect curve),MEXF 274,17
same,t (top plateau of concentration-effect curve),MEXF 274,103
same,b (bottom plateau of concentration-effect curve),BXF 1036,30
same,t (top plateau of concentration-effect curve),BXF 1036,95
same,IC50,BXF 1036; read-out: abs. IC50,5.3 µM
same,IC50,BXF 1036; read-out: rel. IC50,5 µM
same,IC50,RXF 631; read-out: abs. IC50,24.6 µM
same,IC50,RXF 631; read-out: rel. IC50,28.1 µM
same,b (bottom plateau of concentration-effect curve),RXF 631,0
same,t (top plateau of concentration-effect curve),RXF 631,91
same,IC50,PAXF 1900; read-out: abs. IC50,13.2 µM
same,IC50,PAXF 1900; read-out: rel. IC50,12.2 µM
same,b (bottom plateau of concentration-effect curve),PAXF 1900,33
same,t (top plateau of concentration-effect curve),PAXF 1900,114
same,IC50,PXF 1752; read-out: abs. IC50,8.98 µM
same,IC50,PXF 1752; read-out: rel. IC50,8.85 µM
same,b (bottom plateau of concentration-effect curve),PXF 1752,15
same,t (top plateau of concentration-effect curve),PXF 1752,109
same,b (bottom plateau of concentration-effect curve),CXF 280,5
same,t (top plateau of concentration-effect curve),CXF 280,101
same,IC50,CXF 280; read-out: abs. IC50,8.65 µM
same,IC50,CXF 280; read-out: rel. IC50,8.62 µM
same,IC50,RXF 1220; read-out: abs. IC50,43.3 µM
same,IC50,RXF 1220; read-out: rel. IC50,43.4 µM
same,b (bottom plateau of concentration-effect curve),RXF 1220,0
same,t (top plateau of concentration-effect curve),RXF 1220,99
same,IC50,PXF 537; read-out: abs. IC50,8.67 µM
same,IC50,PXF 537; read-out: rel. IC50,8.63 µM
same,b (bottom plateau of concentration-effect curve),PXF 537,24
same,t (top plateau of concentration-effect curve),PXF 537,80
same,IC50,PAXF 2033; read-out: abs. IC50,9.19 µM
same,IC50,PAXF 2033; read-out: rel. IC50,8.89 µM
same,b (bottom plateau of concentration-effect curve),PAXF 2033,27
same,t (top plateau of concentration-effect curve),PAXF 2033,110
